Source: PMC7287031 (Pharmacology Research & Perspectives, 2020)

How the values were obtained:
[1] = Rat ADME study: excretion, mass balance, metabolite profiling with radiolabeled ribociclib; assay type: in vivo
Method: (§1) ADME studies (including QWBA in pigmented and non‐pigmented rats) using radiolabeled ribociclib were conducted in rat and dog. Relevant institutional and national guides for the care and use of laboratory animals were followed.
(§2) Metabolite profiling was conducted on plasma, urine, bile, and feces samples in the rat and dog ADME studies, and further metabolite profiling on plasma and milk was conducted in a dedicated rat milk excretion study.
(§3) Plasma samples obtained from these studies were extracted with equal volumes of acetonitrile. Additional extractions of the protein pellet with acetonitrile and/or acetone were conducted as needed to maximize radioactivity recovery. Feces samples were initially extracted with two to four volumes of acetonitrile. Additional extractions of the pellet following centrifugation and removal of supernatant were conducted with acetonitrile and/or acetone as needed to maximize radioactivity recovery. Urine and bile samples were analyzed directly following centrifugation. Radioactivity recoveries following the centrifugation step were measured by LSC. Milk samples were extracted with two volumes of acetonitrile, following centrifugation and removal of supernatant, the pellets were re‐suspended in 100 µL of water and re‐extracted with 200 µL acetonitrile.
(§4) Metabolite profiling in the ADME studies was conducted using liquid chromatography‐mass spectrometry. Radioactivity profiles were generated by diversion of the majority of the post‐column flow into 96‐well yttrium silicate scintillation‐coated plates (Deepwell Lumaplates; Perkin Elmer Life and Analytical Sciences Inc), by means of Gilson FC204 fraction collectors (Gilson). Metabolites were identified by mass spectrometry (Waters QTOF operating under MassLynx 4.1) and, where feasible, by comparison with authentic reference standards.

CYP1A2 = target: T1, CYP1A2 (Homo sapiens, UniProt P05177); assay: Enzyme kinetics with recombinant CYP1A2 and scaling to HLM; assay type: in vitro ADME
T1 construct: purchased BD Biosciences
T1 sequence (P05177 1-516): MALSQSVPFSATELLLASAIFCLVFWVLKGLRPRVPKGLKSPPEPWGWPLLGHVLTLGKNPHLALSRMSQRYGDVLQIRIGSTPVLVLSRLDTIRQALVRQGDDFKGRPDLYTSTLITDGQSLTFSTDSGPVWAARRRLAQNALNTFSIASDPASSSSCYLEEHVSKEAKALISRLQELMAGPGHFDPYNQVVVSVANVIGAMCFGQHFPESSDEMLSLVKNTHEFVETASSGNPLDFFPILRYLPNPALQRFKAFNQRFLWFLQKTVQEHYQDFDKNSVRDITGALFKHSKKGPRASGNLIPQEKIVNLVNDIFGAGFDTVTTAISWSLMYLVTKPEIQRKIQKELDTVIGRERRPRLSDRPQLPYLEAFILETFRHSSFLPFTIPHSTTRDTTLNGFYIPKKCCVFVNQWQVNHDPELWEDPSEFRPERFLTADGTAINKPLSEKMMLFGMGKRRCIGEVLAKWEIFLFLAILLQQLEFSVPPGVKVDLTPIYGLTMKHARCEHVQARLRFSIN
Method: In vitro incubations were carried out in 100‐mM potassium phosphate buffer (pH 7.4) and 5‐mM MgCl2 with a total volume of 200 µL. Substrate and either human liver microsomes (HLM, BD Biosciences, mixed gender pool of n = 50) or recombinant human enzymes (BD Biosciences) were added and pre‐incubated for 3 minutes at 37°C. The reaction was started by addition of a fresh solution of NADPH (1 mmol/L final concentration). The samples were incubated at 37°C with agitation of 500 rpm. For incubations with CYP2A6, CYP2C9, CYP2C18, and CYP4A11, the phosphate buffer was replaced by TRIS buffer (100 mmol/L, pH 7.4) and for flavin‐containing monooxygenases (FMOs), a glycine buffer (50 mM, pH 9.5) was used.
The enzymatic reaction was stopped and the protein was precipitated by addition of an equal volume of methanol. After 30 min at −80°C, the samples were centrifuged at 30'000 x g for 15 min. The supernatant was withdrawn. Aliquots were analyzed by LSC and the supernatant was diluted with water to obtain a final solution containing less than 20% of the organic solvent. For samples of low substrate concentration, supernatants were evaporated to dryness under nitrogen, then re‐suspended in water containing less than 20% of methanol. Samples were analyzed by HPLC combined with radiodetection. […]

[2] = Dog ADME study: excretion, mass balance, metabolite profiling with radiolabeled ribociclib; assay type: in vivo
Method: as §1, §2, §3, §4

[3] = Human ADME study: safety assessments; assay type: in vivo; conditions: single oral 600 mg
Description: Safety analysis included monitoring and recording of all adverse events, laboratory tests (ophthalmologic exam, hematology, blood chemistry, and urinalysis), vital signs, electrocardiogram, and physical examination.

[4] = rat, oral dosing of radiolabeled ribociclib
[5] = oral dosing of radiolabeled ribociclib

CN(C)C(=O)c1cc2cnc(Nc3ccc(N4CCNCC4)cn3)nc2n1C1CCCC1 [ribociclib, Ribociclib]
Recovery of radioactivity in mass balance study ([1]; rat): approximately 90%
Absorption ([1]; rat ADME study, derived from AUC of total radiolabeled components after i.v. and p.o. dosing): 66%
dose eliminated in bile (radioactivity) ([1]; rat, i.v.): 61.4 % of dose
ribociclib in feces of bile duct-cannulated rats ([1]; rat, i.v.): 8 % of the dose
unchanged ribociclib recovered in bile ([1]; rat, i.v.): 1 % of the dose
radioactivity found in feces [1, 4]: 84.0%
radioactivity found in urine [1, 4]: 5.9%
ribociclib in feces ([1]; rat, p.o.): 22.4 % of the oral dose
unchanged ribociclib in urine ([1]; rat, p.o.): 2.7 % of the dose
fm,CYP (CYP1A2; CYP1A2, share of total CYP-mediated metabolism in HLM): 1.1%
fumic (CYP1A2; CYP1A2 incubation): 0.86
Recovery of radioactivity in mass balance study [2]: approximately 90%
radioactivity found in feces [2, 5]: 68.8%
radioactivity found in urine [2, 5]: 18.5%
ribociclib in feces ([2]; p.o.): 10.7 % of the oral dose
unchanged ribociclib in urine ([2]; p.o.): 13.4 % of the dose
abdominal discomfort, share of subjects ([3]; 2 subjects of six): 33.3%
discontinuation due to an AE [3]: no subjects discontinued
serious adverse events (SAEs) [3]: No serious adverse events
severity of all AEs [3]: grade 1
subjects with an AE suspected to be related to the study drug (headache) [3]: one subject
subjects who experienced at least one adverse event (AE) ([3]; six healthy male subjects): Five
